Measurements from patent US20230391868A1, “COMPOSITIONS FOR AND METHODS OF TREATING CANCER” (The George Washington University, priority 2022, published 2023).

What was measured:
SM1 melanoma cells = test: Flow cytometry-based phagocytosis assay, BMDMs co-cultured with SM1 cells; assay type: cell-based, mouse; conditions: NextA treated vs untreated macrophages (FIG. 4)
Procedure: To evaluate phagocytosis by flow cytometry, SM1 melanoma cells were co-cultured with A3.1A7 cells or BMDMs derived from wild-type C57/Bl6 mice at a 2:1 ratio for 2 hr. or 4 hr. in serum-free media. Twenty-four (24) hours prior to co-culture, macrophages were polarized to their respective phenotypes as previously described in the presence or absence of NextA, and melanoma cells were untreated or treated with NextA. On the day of the co-culture, melanoma cells were stained with 1 μM of CellTrace™ CFSE Cell Proliferation Kit (ThermoFisher, C34554) and were washed extensively to remove excess dye. Phagocytosis assays were carried out in the presence of anti-mouse CD47 (clone miap301, 127502, Biolegend, San Diego, CA) and its respective isotype control (IgG, 400502, Biolegend), or anti human CD47 (clone CC2C6, 323102, Biolegend) or isotype control (MOPC-21, BE0083, Biolegend) at 25 μg/mL. Co-culture was set up in non-cell culture treated 96 U-well plates. […]
Flow cytometry data was acquired a BD FACS Celesta Cell Analyzer, and data analysis was performed with FlowJo software version 10.3. Phagocytosis was determined as the percentage of CFSE+F4/80+ or CFSE+ CD11b+ cells out of total F4/80+ or total CD11b+ cells. […]

B16F10 melanoma tumors = test: B16F10 melanoma tumor growth in vivo; set-up: species or system mouse; conditions: B16F10-bearing mice; legend: NextA 25 mg/kg IP, αCD47 50 μg IT (FIG. 10A)
Description: The antitumor effects of the combination therapy were also observed in the B16F10 melanoma model following the same experimental protocol as in the SM1 model. […] Regarding the immunophenotyping of tumors, there were no significant differences in the immune cell populations in the B16 TME by flow cytometry (FIG. 10B-FIG. 10E). Thus, the discrepancies between the SM1 and B16F10 tumor models could be explained by the scarce infiltration of immune cells in the TME of B16F10 tumors compared to SM1 tumors (5% versus 15%, respectively, FIG. 10F) as well as the poor immunogenicity of B16 tumors.

SM1 cells = test: Phagocytosis kinetics by live cell imaging; assay type: cell-based, mouse
Procedure: After co-culture, slides were fixed in 4% paraformaldehyde. Slides were incubated overnight with primary anti-GFP antibody (Cell Signaling, 2956) at 4° C. Slides were incubated with goat anti-rabbit IgG conjugated to Alexa Fluor 488 (A11008, ThermoFisher). Slides were mounted using VECTASHIELD Antifade Mounting Medium with DAPI (H-1200-10, Vector Laboratories, Burlingame, CA). Slides were imaged using a Zeiss 710 confocal microscope. Phagocytosis was quantified using Fiji by Image J, and the percentage of phagocytosis was calculated by dividing the number of GFP+ macrophages containing red dye in their vesicles out of total GFP+ macrophages. Live imaging was performed following a similar protocol and images were acquired through ImageXpress Pico Automated Cell Imaging System (Molecular Devices, San Jose, CA, USA).
To assess the phagocytosis kinetics in those groups, live cell imaging was performed and phagocytosis was tracked for 4 hr. after the macrophages and SM1 cells were co-cultured for an hour. Images were acquired every four minutes thereafter.

SIRPα = test: Cell surface SIRPα expression by flow cytometry; assay type: cell-based, mouse; conditions: A31A7 macrophages and BMDMs; flow cytometry (FIG. 2C)
Procedure: Cell surface expression of CD47 in melanoma cells was evaluated using PE anti-mouse CD47 (clone miap301, […], Biolegend), PE anti-human CD47 (clone CC2C6, 323108, Biolegend), and their respective isotype controls (400508, 400113, respectively, Biolegend). SIRPα was evaluated using APC anti-mouse CD172a (SIRPα) antibody (clone P84, 144014, Biolegend) or APC anti-human CD172a/b (SIRPα/β) antibody (clone SE5A5, 323810, Biolegend) and their respective isotype controls (400411, Biolegend).

In the case of `CCCCN(Cc1ccc(C(=O)NO)cc1)C(=O)Nc1ccccc1` [NextA, Nexturastat A], the “phagocytic capacity of macrophages” value (SM1 melanoma cells) is reported as “enhanced the phagocytic capacity”, the “B16 melanoma tumor growth” value (B16F10 melanoma tumors) is reported as “did not decrease” and the maximum phagocytosis reached (SM1 cells; M1 NextA treated macrophages, IgG control group (FIG. 4L)) is reported as “approximately 20%”. The “phagocytosis rate over time” value (SM1 cells; M1 macrophages with SM1 cells, tracked for 4 hr (FIG. 4L)) was “steady increase in phagocytosis over time” and the “SIRPα expression on the cell surface” value (SIRPα) was “significantly decreased”.
